Test results published in PMC10372009, “Molecular basis of GDF15 induction and suppression by drugs in cardiomyocytes and cancer cells toward precision medicine” (Scientific Reports, 2023).

Assays:
GDF15 [1] = experiment: Basal GDF15 gene expression in 21 lung and colorectal cancer cell lines treated with BI 894999 (RNA sequencing, qPCR); type: cell-based, human; conditions: of 21 treated lung and colorectal cancer cell lines; 10, 35 or 100 nM, 4 h or 24 h
From the text: (§1) GDF15 overexpression can be both chemotherapy- and cancer-driven. Various cancer cell types were reported to overexpress GDF15, thereby exacerbating the development of cachexia. Whilst a personalized selection of chemotherapeutic agents has the potential to mitigate chemotherapy-driven GDF15 overexpression in cancer cells, it leaves basal overexpression of GDF15 unaffected. […] To test this further, we analyzed our own gene expression data of 21 lung and colorectal cancer cell lines treated with the BET inhibitor BI 894999[26]. […] Additionally, we analyzed fold-changes of GDF11 which is well known for its rejuvenating effect but also associated with cachexia, partially through upregulation of GDF15[19]. […] The more GDF15 expression was reduced, the more GDF11 expression tended to get increased upon BET inhibition in the respective cell lines (Fig. 5A).
(§2) Figure 5 GDF15 gene suppression by BET inhibitors. Effect of BET inhibition on basal GDF15 and GDF11 expression in 21 cancer cell lines and on doxorubicin-induced GDF15 overexpression in hiPSC-CMs. (A) Treatment of cancer cell lines with the BET Inhibitor BI 894999 (Supplementary Table S3). Fold-change of relative gene expression. Normalized gene expression analysis performed using RNA sequencing and qPCR, 95% confidence interval. […]

GDF11 = GDF11 gene expression in 21 lung and colorectal cancer cell lines treated with BI 894999; type: cell-based, human; conditions: of 21 treated cell lines; 10, 35 or 100 nM, 4 h or 24 h
From the text: as §1, §2

GDF15 [2] = experiment: Doxorubicin-induced GDF15 mRNA expression in hiPSC-CMs, successive treatment with BET inhibitors (qPCR); type: cell-based, human; conditions: BET inhibitor given subsequently to doxorubicin
From the text: (§3) Host cells are known to contribute to elevated GDF15 levels in cachexia patients when exposed to drug toxicity. […] We plotted GDF15 fold-changes against the respective reported half maximal inhibitory concentrations (IC50) of each BET inhibitor for BRD2, BRD3 and BRD4, whenever available. GDF15 fold-change thereby meant the ratio of GDF15 expression induced by doxorubicin only and doxorubicin combined with BET inhibitor normalized to cell viability.
(§4) Cardiotoxic drug (SCREEN-WELL® Cardiotoxicity library, BML-2850, ENZO) library was prepared by serial dilution of 10 mM stocks in DMSO to 9 different concentrations ranging from 0.001 to 10 mM, which were further diluted into assay plates to final concentrations ranging from 0.001 to 10 µM. […] The final concentration of DMSO for hiPSC-CMs assay was 0.1%. To investigate the influence of BET inhibitor treatment on doxorubicin induced GDF15 mRNA expression, hiPSC-CMs were pre-treated with 20 nM or 200 nM doxorubicin for 48 h and kept in medium without compound for 24 h before 24 h treatment with either 100 nM BI 894999 or 500 nM OTX015. […] Cancer cell lines were treated with 10 nM, 35 nM or 100 nM of BI 894999 for 4 h or 24 h (Supplementary Table S3).
(§5) For GDF15 mRNA quantification, total RNA was isolated from the cells using an RNeasy kit (Qiagen, 74106) to synthesize cDNA using a Taqman Reverse Transcription kit (Applied Biosystems, N8080234). Quantitative real-time PCR analysis was performed using QuantiNova SYBR Green PCR Kit (Qiagen, 208052) on a CFX96 Real-Time System (Bio-Rad) under the following amplification conditions: 95 °C for 2 min followed by 40 cycles of 95 °C for 5 s and 60 °C for 10 s. The primer sequences are GDF15-F: 5′-[…]-3′, GDF15-R: 5′-[…]-3′, ACTB-F: 5′-[…]-3′ and ACTB-R: 5′-[…]-3′. PCR data were analyzed using a modified relative expression software tool (REST) and the expression level of GDF15 gene was normalized to that of β-actin.

BRD4 = experiment: ChIP-seq of BRD4 bound to putative enhancers near the GDF15 gene locus in AML cell lines; type: cell-based; conditions: 1 to 1000 nM, reanalysis of previously published ChIP-seq data ref 26
From the text: In 50% of NCI-60, we thereby found a correlation between drug-induced GDF15 and BRD4 expression. […]

GDF15 [3] = experiment: Doxorubicin-induced GDF15 secretion in hiPSC-CMs, simultaneous treatment with BET inhibitors (ELISA); type: cell-based, human; conditions: simultaneous 100 nM doxorubicin and 0.1 to 1000 nM BET inhibitor, 48 h
From the text: as §3, §4
as §5, with “β-actin. For secreted GDF15 protein quantification, cell culture medium was collected after drug treatment and stored at − 20 °C until ELISA was performed using Human GDF-15 ELISA Kit (Abcam, ab155432) according to the manufacturer’s instruction. Resulting GDF15 concentrations were normalized to non-treated control and respective relative cell viability.” for “β-actin.”
Supplementary Figure S6. (A) Fold-change of GDF15 secretion by hiPSC-CMs after simultaneous
treatment with doxorubicin and seven BET Inhibitors for 48 h. Normalized to cell viability and non-treated […]

cancer-driven cachexia = test system: cancer-driven cachexia; set-up: method as in PMID 29167426; conditions: mice; cited from earlier work

## CNc1nc(-c2nc3ccc(N4CCN(C)CC4)cc3n2Cc2ccccc2)cn2c(C)nnc12 [BI 894999]
GDF15 [1]
  number of cell lines with significantly reduced GDF15 expression: 9
GDF11
  number of cell lines with increased GDF11 expression: 19
GDF15 [2]
  effect on doxorubicin-induced GDF15 overexpression (mRNA): suppressed
BRD4
  BRD4 bound to putative enhancers in close vicinity to the GDF15 gene locus: reduction of BRD4 bound to putative enhancers

## Cc1sc2c(c1C)C(c1ccc(Cl)cc1)=N[C@@H](CC(=O)OC(C)(C)C)c1nnc(C)n1-2 [JQ1]
GDF15 [3]
  effect on doxorubicin-induced GDF15 overexpression (secretion): suppressed
cancer-driven cachexia
  effect on cancer-driven cachexia: counteract cancer-driven cachexia
